Test system: HT29 cells
Test: Inhibition of cell necrosis (CCK8 method), induced programmed necrosis of HT29 cells
Type: cell-based
Conditions: Homo sapiens, HT-29; rescue from necrosis induced by TNF-α 20 ng/mL, AT-406 1 μM, Z-VAD-FMK 20 μM; 16-20 hours; CCK-8, OD 450 nm
How it was run: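 Rescue from programmed necrosis was scored by CCK-8 absorbance at 450 nm after 16-20 h of TNF-α (20 ng/mL), AT-406 (1 μM) and Z-VAD-FMK (20 μM) at 37 °C, 5% CO2. HT29 cells had received compound 30 min earlier across nine 4-fold dilutions (top 25000 nM final). IC50 came from % inhibition relative to uninduced and induced-only wells.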

Work on Cc1c(F)cc(OCCCC(C)(C)O)cc1-c1ccnc(NC(=O)c2nnc(Cc3ccccc3)[nH]2)c1 [Example 235, 5-benzyl-N-(4-(3-fluoro-5-((4-hydroxy-4-methylpentyl)oxy)-2-methylphenyl)pyridin-2-yl)-4H-1,2,4-triazole-3-carboxamide] yielded an IC50 of no more than 0.1 µM.

COCCOc1nc(-c2ccnc(NC(=O)c3nnc(Cc4ccccc4)[nH]3)c2)ccc1C [Example 54, 5-benzyl-N-(6-(2-methoxyethoxy)-5-methyl-[2,4′-bipyridin]-2′-yl)-4H-1,2,4-triazole-3-carboxamide] gave an IC50 greater than 10 µM.

CC(C)(O)CCCOc1ccc(Cl)c(-c2ccnc(NC(=O)c3nnc(CC4CCCC4)[nH]3)c2)c1 [Example 356, N-(4-(2-chloro-5-((4-hydroxy-4-methylpentyl)oxy)phenyl)pyridin-2-yl)-5-(cyclopentylmethyl)-4H-1,2,4-triazole-3-carboxamide] gave an IC50 of no more than 0.1 µM.

In the case of Cc1ccc(OCCCC(C)(C)O)cc1-c1cc(NC(=O)c2nnc(Cc3cccc(Cl)c3F)[nH]2)ncn1 [Example 438, 5-(3-chloro-2-fluorobenzyl)-N-(6-(5-((4-hydroxy-4-methylpentyl)oxy)-2-methylphenyl)pyrimidin-4-yl)-4H-1,2,4-triazole-3-carboxamide], the IC50 is reported as 0.1 to 1 µM.

COCCCCOc1ccc(C)c(-c2ccnc(NC(=O)c3nnc(Cc4ccccc4)[nH]3)c2)c1 [Example 152, 5-benzyl-N-(4-(5-(4-methoxybutoxy)-2-methylphenyl)pyridin-2-yl)-4H-1,2,4-triazole-3-carboxamide] gave an IC50 of no more than 0.1 µM.

O=C(Nc1cc(-c2cc(OCC3CCOCC3)ccc2Cl)ccn1)c1nnc(Cc2ccccc2F)[nH]1 [Example 400, 5-(2-fluorobenzyl)-N-(4-(2-chloro-5-((tetrahydro-2H-pyran-4-yl)methoxy)phenyl)pyridin-2-yl)-4H-1,2,4-triazole-3-carboxamide] showed an IC50 of no more than 0.1 µM.

Work on CCOc1ccc(C)c(-c2ccnc(NC(=O)c3nnc(Cc4ccccc4)[nH]3)c2)c1 [Example 108, 5-benzyl-N-(4-(5-ethoxy-2-methylphenyl)pyridin-2-yl)-4H-1,2,4-triazole-3-carboxamide] yielded an IC50 of 1 to 10 µM.

For O=C(Nc1cc(-c2cc(OCCC3CCOCC3)ccc2F)ccn1)c1nnc(CC2CCCCC2)[nH]1 [Example 317, 5-(cyclohexylmethyl)-N-(4-(2-fluoro-5-(2-(tetrahydro-2H-pyran-4-yl)ethoxy)phenyl)pyridin-2-yl)-4H-1,2,4-triazole-3-carboxamide], the IC50 was no more than 0.1 µM.

In the case of Cc1ccc(OCCCC(C)(C)O)cc1-c1cc(NC(=O)c2nnc(CC3CCCC3)[nH]2)ncn1 [Example 439, 5-(cyclopentylmethyl)-N-(6-(5-((4-hydroxy-4-methylpentyl)oxy)-2-methylphenyl)pyrimidin-4-yl)-4H-1,2,4-triazole-3-carboxamide], the IC50 is reported as no more than 0.1 µM.

CC(C)(O)CCCOc1ccc(Cl)c(-c2cc(NC(=O)c3nnc(CC4CCCCC4)[nH]3)ncn2)c1 [Example 465, 5-(cyclohexylmethyl)-N-(6-(2-chloro-5-((4-hydroxy-4-methylpentyl)oxy)phenyl)pyrimidin-4-yl)-4H-1,2,4-triazole-3-carboxamide] was tested, and the IC50 was no more than 0.1 µM.

In the case of CC(C)(O)CCCOc1ccc(Cl)c(-c2ccnc(NC(=O)c3nnc(Cc4ccc(F)c(Cl)c4)[nH]3)c2)c1 [Example 342, 5-(3-chloro-4-fluorobenzyl)-N-(4-(2-chloro-5-((4-hydroxy-4-methylpentyl)oxy)phenyl)pyridin-2-yl)-4H-1,2,4-triazole-3-carboxamide], the IC50 is reported as 0.1 to 1 µM.

Work on CC(C)(O)CCCCOc1ccc(F)c(-c2ccnc(NC(=O)c3nnc(Cc4ccccc4F)[nH]3)c2)c1 [Example 500, N-(4-(2-fluoro-5-((5-hydroxyl-5-methylhexyl)oxy)phenyl)pyridin-2-yl)-5-(2-fluorobenzyl)-4H-1,2,4-triazole-3-carboxamide] yielded an IC50 of 0.1 to 1 µM.

For CC(C)(O)CCCOc1ccc(Cl)c(-c2ccnc(NC(=O)c3nnc(Cc4ccc(F)c(Cl)c4F)[nH]3)c2)c1 [Example 501, 5-(3-chloro-2,4-difluorobenzyl)-N-(4-(2-chloro-5-((4-hydroxy-4-methylpentyl)oxy)phenyl)pyridin-2-yl)-4H-1,2,4-triazole-3-carboxamide], the IC50 was 0.1 to 1 µM.

Compound CCOCCOc1ccc(C(F)(F)F)c(-c2ccnc(NC(=O)c3nnc(Cc4ccccc4)[nH]3)c2)c1 [Example 283, 5-benzyl-N-(4-(5-(2-ethoxyethoxy)-2-(trifluoromethyl)phenyl)pyridin-2-yl)-4H-1,2,4-triazole-3-carboxamide] has an IC50 of no more than 0.1 µM.

In the case of CC(C)(O)CCCOc1ccc(Cl)c(-c2ccnc(NC(=O)c3nnc(Cc4cc(F)cc(Cl)c4)[nH]3)c2)c1 [Example 341, N-(4-(2-chloro-5-((4-hydroxy-4-methylpentyl)oxy)phenyl)pyridin-2-yl)-5-(3-chloro-5-fluorobenzyl)-4H-1,2,4-triazole-3-carboxamide], the IC50 is reported as 0.1 to 1 µM.

In the case of Cc1ccc(OCCCC(C)(C)O)cc1-c1ccnc(NC(=O)c2nnc(CC3CCC3)[nH]2)c1 [Example 172, 5-(cyclobutylmethyl)-N-(4-(5-((4-hydroxy-4-methylpentyl)oxy)-2-methylphenyl)pyridin-2-yl)-4H-1,2,4-triazole-3-carboxamide], the IC50 is reported as no more than 0.1 µM.

In the case of O=C(Nc1cc(-c2cc(OCCCCO)ccc2C(F)(F)F)ccn1)c1nnc(CC2CCCC2)[nH]1 [Example 274, 5-(cyclopentylmethyl)-N-(4-(5-(4-hydroxybutoxy)-2-(trifluoromethyl)phenyl)pyridin-2-yl)-4H-1,2,4-triazole-3-carboxamide], the IC50 is reported as no more than 0.1 µM.

Work on CCc1cc(-c2ccnc(NC(=O)c3nnc(Cc4ccccc4)[nH]3)c2)c(OC)cn1 [Example 63, 5-benzyl-N-(2′-ethyl-5′-methoxy-[4,4′-bipyridin]-2-yl)-4H-1,2,4-triazole-3-carboxamide] yielded an IC50 of 1 to 10 µM.

Compound COC(=O)CCc1ccc(C)c(-c2ccnc(NC(=O)c3nnc(CC4CCCC4)[nH]3)c2)c1 [Example 481, Methyl 3-(3-(2-(5-(cyclopentylmethyl)-4H-1,2,4-triazol-3-carboxamido)pyridin-4-yl)-4-methylphenyl)propionate] has an IC50 of 0.1 to 1 µM.

CC(C)Oc1ccc(Cl)c(-c2cncc(NC(=O)c3nnc(Cc4ccccc4)[nH]3)c2)c1 [Example 110, 5-benzyl-N-(5-(2-chloro-5-isopropoxyphenyl)pyridin-3-yl)-4H-1,2,4-triazole-3-carboxamide] was tested, and the IC50 was greater than 10 µM.

For COc1ccc(OC(C)C)cc1-c1ccnc(NC(=O)c2nnc(Cc3ccccc3)[nH]2)c1 [Example 112, 5-benzyl-N-(4-(5-isopropoxy-2-methoxyphenyl)pyridin-2-yl)-4H-1,2,4-triazole-3-carboxamide], the IC50 was 1 to 10 µM.

Compound Cc1ccc(OCCCC(C)(C)O)cc1-c1ccnc(NC(=O)c2nnc(CC3CC3)[nH]2)c1 [Example 171, 5-(cyclopropylmethyl)-N-(4-(5-((4-hydroxy-4-methylpentyl)oxy)-2-methylphenyl)pyridin-2-yl)-4H-1,2,4-triazole-3-carboxamide] has an IC50 of 0.1 to 1 µM.

Cc1ccc(OCCCC(C)(C)O)cc1-c1ccnc(NC(=O)c2nnc(Cc3ccncc3)[nH]2)c1 [Example 221, N-(4-(5-((4-hydroxy-4-methylpentyl)oxy)-2-methylphenyl)pyridin-2-yl)-5-(pyridin-4-ylmethyl)-4H-1,2,4-triazole-3-carboxamide] gave an IC50 of 0.1 to 1 µM.
